Results published in PubChem BioAssay (NCI).
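Protocol summary: plate cells (96-well), add compound at 5 concentrations, incubate 48 h, interpolate endpoints linearly. GI50 = concentration required for 50% inhibition of growth. At the TGI there is no net growth.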

What was measured:
Assay in all cases: NCI-60 cell line screen, 48 h
CCRF-CEM leukemia = test system: CCRF-CEM leukemia
HCT-116 colon = test system: HCT-116 colon
K-562 leukemia = test system: K-562 leukemia
NCI-H226 lung = test system: NCI-H226 lung
OVCAR-3 ovarian = test system: OVCAR-3 ovarian
RPMI-8226 leukemia = test system: RPMI-8226 leukemia
SK-MEL-5 melanoma = test system: SK-MEL-5 melanoma
SNB-75 CNS = test system: SNB-75 CNS
UACC-257 melanoma = test system: UACC-257 melanoma
ACHN renal = test system: ACHN renal

SMILES	TGI (CCRF-CEM leukemia)	TGI (HCT-116 colon)	TGI (K-562 leukemia)	TGI (NCI-H226 lung)	TGI (OVCAR-3 ovarian)	TGI (RPMI-8226 leukemia)	TGI (SK-MEL-5 melanoma)	TGI (SNB-75 CNS)	TGI (UACC-257 melanoma)	GI50 (ACHN renal)	TGI (ACHN renal)	GI50 (CCRF-CEM leukemia)	GI50 (HCT-116 colon)	GI50 (K-562 leukemia)	GI50 (NCI-H226 lung)	GI50 (OVCAR-3 ovarian)	GI50 (RPMI-8226 leukemia)	GI50 (SK-MEL-5 melanoma)	GI50 (UACC-257 melanoma)	GI50 (SNB-75 CNS)
Nc1nc(Cl)cc(NCC(O)CO)n1 (stereo not drawn)	> 100 µM	> 100 µM	> 100 µM	> 100 µM	> 100 µM	> 100 µM	> 100 µM	> 100 µM	> 100 µM											
CCCCCCCCCCCC(=O)N1CCN(C(C)=O)CC1	40.6 µM	63.4 µM	59.7 µM	77.3 µM	95 µM	35.7 µM	38.9 µM		36.9 µM	62.1 µM	> 100 µM	18.7 µM	22.5 µM	22.9 µM	27.9 µM	27.6 µM	16.8 µM	23.7 µM	19.4 µM	
COc1cc(-c2oc3c(OC)cc(OC)c(O)c3c(=O)c2OC)cc(OC)c1OC		> 100 µM	> 100 µM	> 100 µM	> 100 µM	> 100 µM	> 100 µM	5.06 µM			> 100 µM									
COc1ccc(Sc2nc3cc(N)cc(N)c3nc2-c2ccccc2)cc1	8.36 µM	> 100 µM	> 100 µM			84.4 µM	> 100 µM		> 100 µM			2.28 µM	14.7 µM	9.83 µM			3.96 µM	24 µM	43.2 µM	
COC(=O)C1=CO[C@@H](OC2OC(CO)C(O)C(O)C2O)[C@H]2[C@@H](C)[C@@H](O)[C@@H](O)[C@@H]12 (stereo partly drawn)		> 100 µM		> 100 µM	> 100 µM	> 100 µM	> 100 µM	> 100 µM	> 100 µM		> 100 µM									
CCCNCC(=O)O[C@]1(CC)C(=O)OCc2c1cc1n(c2=O)Cc2cc3ccccc3nc2-1	0.308 µM		> 100 µM	0.331 µM	2.63 µM	0.88 µM	0.304 µM	0.537 µM	1.88 µM		0.233 µM									
NC(N)=NC(N)=Nc1cnccn1	> 100 µM	> 100 µM	> 100 µM	> 100 µM	> 100 µM		> 100 µM	> 100 µM	> 100 µM		> 100 µM									
C(=N\Nc1ccccc1)/c1nc2ccccc2nc1/C=N/Nc1ccccc1	> 100 µM	25.7 µM	20.5 µM	34.3 µM	31.9 µM		35.4 µM	31.4 µM	58.2 µM		30.6 µM									
Clc1ccc(Nc2ccnc(N3CCN(c4ccnc5cc(Cl)ccc45)CC3)n2)cc1	20.6 µM	6.38 µM	7.94 µM	23.4 µM	9.87 µM	15.1 µM	3.66 µM	7.29 µM	13.5 µM			3.07 µM	1.99 µM	2.56 µM	3.96 µM	2.93 µM	2.75 µM	1.81 µM	3.05 µM	1.79 µM
COc1ccc2c(c1)oc(=O)c1cc(OC)ccc12	> 100 µM	> 100 µM	> 100 µM	> 100 µM	> 100 µM	> 100 µM	> 100 µM	> 100 µM	> 100 µM			> 100 µM	> 100 µM	> 100 µM	> 100 µM	> 100 µM	> 100 µM	65.2 µM	> 100 µM	> 100 µM
